Key:
Format in all cases: cell-based
[1] = system: Moraxella osloensis; test: Examination example: suppression of metabolism of 14-methylhexadecanoic acid, components (a) and (b)/(b′); conditions: for Metabolism of branched fatty acid: Residual amount (μg/fabric g): 14-methylhexadecanoic acid
Method: The suppression of metabolism of 14-methylhexadecanoic acid by bacteria of the genus Moraxella and the suppression of a metabolite therefrom were tested in the following manner.
Moraxella osloensis (strain isolated from clothing) was precultured on an SCD-LP agar medium (NIHON PHARMACEUTICAL CO., LTD.) at 37° C.; for 24 hours, and a bacterial suspension of 10^6 (CFU/ml) was prepared by using an NB liquid medium (Difco) diluted to 1/20 with ion exchange water.
A methanol solution in which 14-methylhexadecanoic acid (SIGMA-ALDRICH) was dissolved was added dropwise to 3 cm×3 cm pieces of sterilized plain-weave cotton fabric to make it adhered to the fabric. The adhesion amount of 14-methylhexadecanoic acid was set to 10 μg per piece of the plain-weave cotton fabric (100 μg/fabric g). Further, a methanol solution in which component (a) was dissolved, and then, a methanol solution in which component (b) or (b′) was dissolved were added dropwise to the fabric to which 14-methylhexadecanoic acid adhered, and it was thereafter dried for an hour. This fabric was placed in a sterilized screw tube bottle No. 3 (Maruemu Corporation) and 100 μl of the bacterial suspension was inoculated thereto, and culture was carried out under 37° C.; conditions for 21 hours.
(§1) 3 ml of methanol was added to the screw tube bottle after culture, and extraction was carried out under ultrasonic irradiation for 30 minutes (20° C.). The extraction liquid was mixed with a (trimethylsilyl)diazomethane hexane solution (FUJIFILM Wako Pure Chemical Corporation) at 9:1 (volume ratio) and left overnight under room temperature and dark place conditions. After that, 14-methylhexadecanoic acid remaining on the fabric was quantified by GC. The quantification conditions for GC are as follows. • GC: Agilent 6890N • GC column: Agilent DB-1 30 m×250 μm×0.25 μm • Temperature rise condition: 50° C. (held for 3 minutes)-(10° C./min)-300° C. (held for 5 minutes) • Sample injection volume: 1 μl • Split ratio: 1:12 • Detector: FID
(§2) The residual amount of 14-methylhexadecanoic acid after culture on the fabric to which each metabolism controlling agent was added was quantified, and the ratio of the residual amount to that of 14-methylhexadecanoic acid in the case of adding no metabolism controlling agent (control) was calculated as a metabolism suppression rate (%). The higher a numerical value thereof is, the more the metabolism is suppressed. Note that the metabolism suppression rate was determined by the following formula:
Metabolism suppression rate(%)=[1−(100−A)/(100−B)]×100 • A: residual amount of 14-methylhexadecanoic acid of reference or examination example (μg/fabric g) • B: residual amount of 14-methylhexadecanoic acid of control (μg/fabric g)
A control is an example in which none of component (a), (b) or (b′) is added, and references 1-1, 2-1, 3-1 and 4-1 qualify as this (the same applies hereinafter). In these controls, the metabolism suppression rate is 0′.

[2] = system: Moraxella osloensis; test: Examination example: measurement of viable bacterial count
Method: (§3) After culture on fabric prepared in the same manner as in the above (1), 9 mL of an LP diluent (manufactured by NIHON PHARMACEUTICAL CO., LTD.) was added, and the extraction of the bacteria was carried out under ultrasound for 10 minutes. The extraction liquid was poured and mixed to an SCD-LP agar medium (NIHON PHARMACEUTICAL CO., LTD.), and culture was thereafter carried out at 37° C.; for a day. The number of colonies obtained on each piece of the fabric was counted, and a common logarithm value thereof was measured as the viable bacterial count. […] In addition, the […], the more the viable bacterial count of the microorganism is maintained.

[3] = system: Moraxella osloensis; test: Examination example: suppression of metabolite 4-methyl-3-hexenoic acid, components (a) and (b)/(b′)
Method: (§4) After culture on fabric prepared in the same manner as in the above (1), 3 ml of methanol was added, and extraction was carried out under ultrasonic irradiation for 30 minutes (20° C.). The extraction liquid was mixed with (a 1000 ppm methanol solution of) an ADAM reagent of Funakoshi Co., Ltd. at 1:1 (volume ratio) and left overnight under room temperature and dark place conditions. After that, 4-methyl-3-hexenoic acid as a metabolite from 14-methylhexadecanoic acid was quantified by HPLC. The quantification conditions are as follows.
Eluent: acetonitrile 61% (v/v), water 39% (v/v) Column temperature: 40° C. Sample injection volume: 10 μL Flow rate: 1.0 mL/min
The production amount of 4-methyl-3-hexenoic acid after culture on the fabric to which the metabolism controlling agent was added was quantified, and the ratio of the production amount to that of 4-methyl-3-hexenoic acid in the case of adding no metabolism controlling agent (control) was calculated as a metabolite suppression rate (%). The higher a numerical value thereof is, the more the metabolism is suppressed. Note that the metabolite suppression rate was determined by the following formula. In references 1-1, 2-1, 3-1 and 4-1, which are controls, the metabolite suppression rate is 0%.
Metabolite suppression rate(%)=100×[(D−C)/D] • C: production amount of metabolite of reference or examination example (μg/fabric g) • D: production amount of metabolite of control (μg/fabric g)

[4] = system: Micrococcus aloeverae; test: Measurement of viable bacterial count on fabric; conditions: agent 250 μg/fabric g
Method: as §3
(§5) The metabolism of 14-methylhexadecanoic acid by bacteria of the genus Micrococcus was tested in the same manner as in example 1.
(§6) In this example, Micrococcus aloeverae (strain isolated from clothing) was used as a microorganism.
(§7) Further, in this example, a bacterial suspension of 10^7 (CFU/ml) prepared by using an SCD liquid medium (NIHON PHARMACEUTICAL CO., LTD.) diluted to 1/10 with ion exchange water was used as a bacterial suspension.
(§8) Note that, in this example, C12OH (1-dodecanol) was used as the metabolism controlling agent.

[5] = system: Micrococcus aloeverae; test: Suppression of metabolite 2-methylbutanoic acid from 14-methylhexadecanoic acid; conditions: agent 250 μg/fabric g
Method: as §4
The production amount of 4-methyl-3-hexenoic acid after culture on the fabric to which each metabolism controlling agent was added was quantified, and the ratio of the production amount to that of 4-methyl-3-hexenoic acid in the case of adding no metabolism controlling agent (control) was calculated as a metabolite suppression rate (%). The higher a numerical value thereof is, the more the metabolism is suppressed. Note that the metabolite suppression rate was determined by the following formula:
Metabolite suppression rate(%)=100×[(D−C)/D] • C: production amount of metabolite of example or comparative example (μg/fabric g) • D: production amount of metabolite of control (μg/fabric g)
as §5, §6, §7
Further, in this example, 2-methylbutanoic acid was quantified as a metabolite from 14-methylhexadecanoic acid, and the metabolite suppression rate was determined in the same manner as in example 1.
as §8

[6] = system: Micrococcus aloeverae; test: Suppression of metabolism of 14-methylhexadecanoic acid on cotton fabric; conditions: agent 250 μg/fabric g
Method: A methanol solution in which 14-methylhexadecanoic acid (SIGMA-ALDRICH) was dissolved was added dropwise to 3 cm×3 cm pieces of sterilized plain-weave cotton fabric to make it adhered to the fabric. The adhesion amount of 14-methylhexadecanoic acid was set to 10 μg per piece of the plain-weave cotton fabric (100 μg/fabric g).
Further, a methanol solution in which each metabolism controlling agent was dissolved was prepared and added dropwise to the fabric to which 14-methylhexadecanoic acid adhered, and it was thereafter dried for an hour. This fabric was placed in a sterilized screw tube bottle No. 3 (Maruemu Corporation) and 100 μl of the bacterial suspension was inoculated thereto, and culture was carried out under 37° C.; conditions for 21 hours.
as §1, with “7890A” for “6890N”
as §2, with “the” for “each”
Metabolism suppression rate(%)=[1−(100−A)/(100−B)]×100 • A: residual amount of 14-methylhexadecanoic acid of example or comparative example (μg/fabric g) • B: residual amount of 14-methylhexadecanoic acid of control (μg/fabric g)
as §5, §6, §7, §8

SMILES | Metabolism of branched fatty acid: Residual amount (μg/fabric g) ([1]; single agent 1 μg/fabric g) | Metabolism of branched fatty acid: Residual amount (μg/fabric g) ([1]; single agent 2 μg/fabric g) | Metabolism of branched fatty acid: Metabolism suppression rate (%) ([1]; single agent 1 μg/fabric g) | Metabolism of branched fatty acid: Metabolism suppression rate (%) ([1]; single agent 2 μg/fabric g) | Viable bacterial count (Log (cfu/fabric cm^2)) ([2]; single agent 1 μg/fabric g) | Viable bacterial count (Log (cfu/fabric cm^2)) ([2]; single agent 2 μg/fabric g) | Product of metabolism of branched fatty acid: Metabolite suppression rate (%) ([3]; single agent 1 μg/fabric g) | Product of metabolism of branched fatty acid: Production amount (μg/fabric g) ([3]; single agent 1 μg/fabric g) | Product of metabolism of branched fatty acid: Metabolite suppression rate (%) ([3]; single agent 2 μg/fabric g) | Product of metabolism of branched fatty acid: Production amount (μg/fabric g) ([3]; single agent 2 μg/fabric g) | also measured
Oc1cc(Cl)ccc1Oc1ccc(Cl)cc1 [Diclosan, 4-4′-dichloro-2-hydroxydiphenyl ether] | 43 μg/fabric g | 46 μg/fabric g | 7% | 11% | 6.2 Log (cfu/fabric cm^2) | 6.0 Log (cfu/fabric cm^2) | 5% | 4.2 μg/fabric g | 14% | 3.8 μg/fabric g | Metabolism of branched fatty acid: Residual amount (μg/fabric g) ([1]; single agent 5 μg/fabric g): 56 μg/fabric g; Metabolism of branched fatty acid: Metabolism suppression rate (%) ([1]; single agent 5 μg/fabric g): 27%; Viable bacterial count (Log (cfu/fabric cm^2)) ([2]; single agent 5 μg/fabric g): 5.1 Log (cfu/fabric cm^2); Product of metabolism of branched fatty acid: Metabolite suppression rate (%) ([3]; single agent 5 μg/fabric g): 41%; Product of metabolism of branched fatty acid: Production amount (μg/fabric g) ([3]; single agent 5 μg/fabric g): 2.6 μg/fabric g
CCCCCCCCCCCCOCCOCCOCCOCCOCCO [Example C12E5, pentaethylene glycol mono-1-dodecyl ether, reference compound] |  |  |  |  |  |  |  |  |  |  | Bacterial count (Log (cfu/fabric cm^2)) [4]: 6.6 Log (cfu/fabric cm^2); Metabolite suppression rate (%) [5]: 6%; Metabolism suppression rate (%) [6]: −3%
Oc1cc(Cl)ccc1Oc1ccc(Cl)cc1Cl [Triclosan, 2,4,4′-trichloro-2′-hydroxydiphenyl ether] | 38 μg/fabric g | 44 μg/fabric g | −2% | 8% | 6.2 Log (cfu/fabric cm^2) | 6.0 Log (cfu/fabric cm^2) | 5% | 4.2 μg/fabric g | 7% | 4.1 μg/fabric g | Metabolism of branched fatty acid: Residual amount (μg/fabric g) ([1]; single agent 0.5 μg/fabric g): 43 μg/fabric g; Metabolism of branched fatty acid: Metabolism suppression rate (%) ([1]; single agent 0.5 μg/fabric g): 6%; Viable bacterial count (Log (cfu/fabric cm^2)) ([2]; single agent 0.5 μg/fabric g): 6.2 Log (cfu/fabric cm^2)

Source: patent US20220408724A1, “METHOD FOR CONTROLLING METABOLISM OF BRANCHED FATTY ACID” (KAO CORPORATION, priority 2019, published 2022)
